The values below come from ChEMBL document CHEMBL1132047, “Nonpeptide oxytocin antagonists: analogs of L-371,257 with improved potency” (Bioorg Med Chem Lett, 1999).

Molecules are shown by their SMILES.

Data set [1] in a line: Oral bioavailability in rat (dose 20 mg/kg). It is filed as ADME, organism-based. The following applies: in vivo.
A short description of data set [2]: Compound was evaluated in vivo in rat for the plasma half-life at a iv dose of 3 mg/kg and oral dose of 10 mg/kg and experiment by using concentration vs time curve. The data set is classed as ADME, organism-based.
For data set [3], the target named is T1, Oxytocin receptor (Homo sapiens, UniProt P30559).
T1 sequence (P30559 whole entry): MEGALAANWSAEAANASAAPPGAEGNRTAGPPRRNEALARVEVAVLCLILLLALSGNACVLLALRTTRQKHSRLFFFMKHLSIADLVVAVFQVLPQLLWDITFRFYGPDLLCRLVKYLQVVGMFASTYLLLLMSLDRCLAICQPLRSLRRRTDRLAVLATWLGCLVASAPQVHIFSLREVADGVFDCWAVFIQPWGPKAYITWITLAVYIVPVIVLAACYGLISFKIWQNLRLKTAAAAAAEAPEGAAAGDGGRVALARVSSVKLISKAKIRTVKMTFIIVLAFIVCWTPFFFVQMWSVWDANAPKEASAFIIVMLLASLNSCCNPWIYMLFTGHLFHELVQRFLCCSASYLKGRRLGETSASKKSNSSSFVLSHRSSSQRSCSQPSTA
As to the kind of experiment: Binding affinity for human oxytocin receptor.

The target in data set [4] is T2, Oxytocin receptor (Rattus norvegicus, UniProt P70536).
T2 sequence (P70536 whole entry): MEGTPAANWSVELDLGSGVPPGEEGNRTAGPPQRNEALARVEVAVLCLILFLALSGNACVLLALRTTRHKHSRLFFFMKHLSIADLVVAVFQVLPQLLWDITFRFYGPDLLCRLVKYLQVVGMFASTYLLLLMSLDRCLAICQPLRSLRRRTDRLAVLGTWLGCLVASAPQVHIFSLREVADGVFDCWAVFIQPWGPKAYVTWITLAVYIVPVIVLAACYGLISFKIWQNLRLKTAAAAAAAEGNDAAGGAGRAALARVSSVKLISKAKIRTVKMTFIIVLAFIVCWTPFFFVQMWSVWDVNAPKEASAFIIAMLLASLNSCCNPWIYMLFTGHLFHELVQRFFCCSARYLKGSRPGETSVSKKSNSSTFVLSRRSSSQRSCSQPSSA
As to the kind of experiment: Binding affinity for rat uterine oxytocin receptor (rOTr).

Data set [5] has as its system Rattus norvegicus. As to the kind of experiment: Compound tested in vivo for antagonist potency against oxytocin (OT)-induced in rats by id administration. It is filed as functional.
The test system of data set [6] is Rattus norvegicus. As to the kind of experiment: Compound tested in vivo for antagonist potency against oxytocin (OT)-induced in rats by iv administration. The data set is classed as functional.
Data set [7] in a line: Compound was evaluated for pharmacokinetic property in rats after an oral dose of 10 mg/kg and the value was reported as oral bioavailability (F). It is filed as ADME, organism-based. The following applies: rat, in vivo.
The target of data set [8] is Vasopressin V2 receptor (Homo sapiens, UniProt P30518). As to the kind of experiment: Binding affinity towards cloned human Vasopressin V2 receptor by using functional assay.
Chain of Vasopressin V2 receptor (Homo sapiens, UniProt P30518) (P30518 whole entry): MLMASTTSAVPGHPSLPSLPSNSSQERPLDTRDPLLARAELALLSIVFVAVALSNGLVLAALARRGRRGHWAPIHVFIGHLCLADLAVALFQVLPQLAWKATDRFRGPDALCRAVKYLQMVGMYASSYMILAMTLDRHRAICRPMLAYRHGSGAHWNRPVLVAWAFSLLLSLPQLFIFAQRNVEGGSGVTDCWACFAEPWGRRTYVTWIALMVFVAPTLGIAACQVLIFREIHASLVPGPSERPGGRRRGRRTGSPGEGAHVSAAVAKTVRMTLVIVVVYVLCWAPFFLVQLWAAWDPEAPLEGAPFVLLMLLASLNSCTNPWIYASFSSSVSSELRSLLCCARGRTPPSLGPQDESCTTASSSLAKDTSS
Data set [9] concerns the target Vasopressin V2 receptor (Rattus norvegicus, UniProt Q00788). As to the kind of experiment: Binding affinity towards rat kidney Vasopressin V2 receptor by using functional assay.
The target of data set [10] is Vasopressin V1a receptor (Rattus norvegicus, UniProt P30560). As to the kind of experiment: Binding affinity towards rat liver Vasopressin V1a receptor by using functional assay.
Chain of Vasopressin V1a receptor (Rattus norvegicus, UniProt P30560) (P30560 whole entry): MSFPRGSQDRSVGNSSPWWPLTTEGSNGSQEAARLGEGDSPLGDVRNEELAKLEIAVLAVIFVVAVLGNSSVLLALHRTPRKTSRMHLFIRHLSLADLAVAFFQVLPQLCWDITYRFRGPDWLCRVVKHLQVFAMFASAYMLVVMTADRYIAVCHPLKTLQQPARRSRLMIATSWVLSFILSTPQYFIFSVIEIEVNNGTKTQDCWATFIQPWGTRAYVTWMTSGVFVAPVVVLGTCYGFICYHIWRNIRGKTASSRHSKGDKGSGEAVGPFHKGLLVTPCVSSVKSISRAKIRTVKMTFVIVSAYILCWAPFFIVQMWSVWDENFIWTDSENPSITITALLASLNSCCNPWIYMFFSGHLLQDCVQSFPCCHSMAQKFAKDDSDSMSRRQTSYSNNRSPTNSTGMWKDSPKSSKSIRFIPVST
For data set [11], the target named is Vasopressin V1a receptor (Homo sapiens, UniProt P37288). As to the kind of experiment: Binding affinity towards human Vasopressin V1a receptor by using functional assay.
Chain of Vasopressin V1a receptor (Homo sapiens, UniProt P37288) (P37288 whole entry): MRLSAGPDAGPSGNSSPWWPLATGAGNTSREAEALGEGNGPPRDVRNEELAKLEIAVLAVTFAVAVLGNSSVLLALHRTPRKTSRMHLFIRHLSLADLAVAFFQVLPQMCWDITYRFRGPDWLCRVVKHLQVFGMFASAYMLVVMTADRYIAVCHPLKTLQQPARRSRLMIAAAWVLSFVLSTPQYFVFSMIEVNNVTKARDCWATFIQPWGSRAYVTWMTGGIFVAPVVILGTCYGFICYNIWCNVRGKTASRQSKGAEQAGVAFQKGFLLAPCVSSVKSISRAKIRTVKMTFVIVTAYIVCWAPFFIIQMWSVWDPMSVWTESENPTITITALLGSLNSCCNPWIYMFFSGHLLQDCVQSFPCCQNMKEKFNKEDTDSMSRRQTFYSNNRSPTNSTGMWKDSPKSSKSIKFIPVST
The nature of data set [12]: Compound was evaluated in vivo in rat for the plasma half-life at a oral dose of 20 mg/kg experiment by using concentration vs time curve. It is filed as ADME, organism-based. Details: dose 20 mg/kg, route oral.
Data set [13] has as its system Rattus norvegicus. As to the kind of experiment: Compound tested in vivo for antagonist potency against oxytocin (OT)-induced contractions in rat uterus by iv administration. The data set is classed as functional.

Chain of Vasopressin V2 receptor (Rattus norvegicus, UniProt Q00788) (Q00788 whole entry): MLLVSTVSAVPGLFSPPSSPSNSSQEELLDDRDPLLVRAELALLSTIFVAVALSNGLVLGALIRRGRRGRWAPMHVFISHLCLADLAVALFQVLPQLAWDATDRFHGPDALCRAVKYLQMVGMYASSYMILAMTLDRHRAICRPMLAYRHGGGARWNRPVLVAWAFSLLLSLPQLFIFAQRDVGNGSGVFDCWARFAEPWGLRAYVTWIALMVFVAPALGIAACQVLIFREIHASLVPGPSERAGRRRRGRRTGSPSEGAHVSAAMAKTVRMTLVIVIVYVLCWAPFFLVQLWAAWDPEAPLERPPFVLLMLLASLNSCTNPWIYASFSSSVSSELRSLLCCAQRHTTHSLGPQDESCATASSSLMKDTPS

The bioavailability is the share of a dose that reaches the circulation, judged against a reference dose that is usually intravenous. Read a low bioavailability as poor availability. The term half-life denotes the time in which the quantity being followed falls by half. A word on the Ki: it is a dissociation constant, usually derived from enzyme kinetics or from competition with a known ligand. In turn, `O=C(Cc1ccc(OC2CCN(CC3CC3)CC2)cc1OCC(F)(F)F)N1CCC(N2C(=O)OCc3ccccc32)CC1` yielded a bioavailability in [1] of 45%. The half-life in data set [2] was 1.7 h. The Ki turned out to be 1 nM at Oxytocin receptor [3] and 1.2 nM on Oxytocin receptor [4]. Besides, the AD50 in the data set on Rattus norvegicus [5] worked out at 22 mg/kg; in the data set with Rattus norvegicus [6], 0.69 mg/kg.
As for `CC(=O)N1CCC(Oc2ccc(CC(=O)N3CCC(N4C(=O)OCc5ccccc54)CC3)c(OCC(F)(F)F)c2)CC1`, the bioavailability in data set [1] and in data set [7] was 19% in each case. Besides, the half-life in data set [2] was 0.27 h. Further, the Ki on Oxytocin receptor [3] turned out to be 1.4 nM; on Oxytocin receptor [4] it was 0.71 nM; on Vasopressin V2 receptor [8], 130 nM; on Vasopressin V2 receptor [9] it was 150 nM; on Vasopressin V1a receptor [10], 2 nM; at Vasopressin V1a receptor [11], 740 nM. The AD50 in the data set with Rattus norvegicus [5] turned out to be 0.64 mg/kg; with Rattus norvegicus [6] it was 0.06 mg/kg.
As to `CC(=O)N1CCC(Oc2ccc(CC(=O)N3CCC(N4C(=O)OCc5ccccc54)CC3)c(OC(F)(F)F)c2)CC1`, the values for the Ki on Oxytocin receptor [3] and on Oxytocin receptor [4] were 2.4 nM and 2.8 nM, respectively. This molecule showed an AD50 in the data set with Rattus norvegicus [6] of 0.27 mg/kg.
In data set [12], `COc1cc(OC2CCN(C(C)=O)CC2)ccc1C(=O)N1CCC(N2C(=O)OCc3ccccc32)CC1` showed a half-life of 0.5 h. For the same molecule, the AD50 worked out at 0.55 mg/kg in the data set with Rattus norvegicus [13] and 2.5 mg/kg in the data set with Rattus norvegicus [5].
Take `O=C(Cc1ccccc1OCC(F)(F)F)N1CCC(N2C(=O)OCc3ccccc32)CC1`: the Ki stood at 4.5 nM on Oxytocin receptor [3] and 6 nM on Oxytocin receptor [4]. Further, the AD50 is over 10 mg/kg with Rattus norvegicus [5] and 1 mg/kg with Rattus norvegicus [6].
The matching figures for `O=C(Cc1ccc(N2CCOCC2)cc1OCC(F)(F)F)N1CCC(N2C(=O)OCc3ccccc32)CC1`: 0.86 nM, 0.6 nM, 0.97 mg/kg and 0.077 mg/kg.
`CC(=O)N1CCC(Oc2ccc(CC(=O)N3CCC(N4C(=O)OCc5ccccc54)CC3)cc2)CC1`: the Ki worked out at 390 nM on Oxytocin receptor [3] and 1600 nM on Oxytocin receptor [4].
The matching figures for `COc1ccc(CCC(=O)N2CCC(N3C(=O)OCc4ccccc43)CC2)c(OC)c1`: 240 nM and 520 nM.
Turning to `COc1ccc(CC(=O)N2CCC(N3C(=O)OCc4ccccc43)CC2)c(OC)c1`, the Ki on Oxytocin receptor [3] came to 33 nM; on Oxytocin receptor [4] it was 37 nM.
`O=C(Cc1ccc(OCCN2CCOCC2)cc1OCC(F)(F)F)N1CCC(N2C(=O)OCc3ccccc32)CC1` gave a bioavailability in data set [1] of 31%. Besides, in data set [2], the half-life is 2.8 h. The results for the Ki on Oxytocin receptor [3] and on Oxytocin receptor [4] were 1.4 nM and 2.1 nM, respectively. The AD50 in the data set on Rattus norvegicus [6] is 0.13 mg/kg.
As for `COc1cc(OC2CCN(C(C)=O)CC2)ccc1CC(=O)N1CCC(N2C(=O)OCc3ccccc32)CC1`, the Ki was 9.8 nM on Oxytocin receptor [3] and 36 nM on Oxytocin receptor [4].
